# According to patent US20210300936A1, “PYRAZOLOTRIAZOLOPYRIMIDINE DERIVATIVES AS A2A RECEPTOR ANTAGONIST” (BEIGENE, LTD., priority 2018, published 2021):
# Molecular target: human A2A receptor (A2AR) (Homo sapiens, UniProt P29274)
# Test: Luciferase reporter assay (HEK293-A2AR-luc2p/CRE/Hygro cells, 3 nM CGS21680)
# Assay type: cell-based
# Conditions: 3 nM CGS21680, 5 h incubation
# Method: HEK293 cells were maintained in Dulbecco's modified Eagle's medium (DMEM, Gibco) supplemented with 10% fetal bovine serum (FBS, Thermo Scientific), 100 units/mL penicillin (Gibco), and 0.1 mg/mL streptomycin (Gibco) in a humidified 37° C. environment with 5% C02. Plasmid encoding wild-type human A2A receptor (A2AR) (in pcDNA3.1) was synthesized by Genscript (Nanjing, China). Transfection of the plasmids was performed in 6-well plates with 4×10^5 cells using Lipofectamin 2000 (ThermoFisher Scientific) according to the instruction of the manufacturer. Cell clones that stably express A2AR were established and maintained in the same complete medium as the HEK293 cells in addition of G-418 (Gibico). Expression level of A2AR in each single cell clone was determined using immunoblotting and FACS method. HEK293-A2AR stable cells were then transfected with pGL4.29[luc2P/CRE/Hygro] (Promega) luciferase reporter plasmid for establishing the HEK293-A2AR-luc2p/CRE/Hygro stable cell line.
# HEK293-A2AR-luc2p/CRE/Hygro cells were seeded at a density of 5,000 cells/well in DMEM with 1% FBS and 1 U/mL adenosine deaminase (ADA) (Sigma). After 18 h, the cells were treated with 3 nM CGS21680 plus a series dilution of A2AR antagonist, the compounds disclosed herein at the concentration of 0.1˜10000 nM, prepared in DMEM with 1% FBS. After 5 h incubation, the luciferase activity in cells were measured using the Bright-Glo Luciferase Assay System (Promega) according to manufacturer's instructions. The luminescence signal was measured using a PHERAstar FS plate reader (BMG Labtech). […] Maximal luminescence intensity was determined in the presence of 3 nM CGS21680 and was set as 100%. The IC50 value was calculated from a dose dependent inhibition curve across the range of compound concentrations.
# Sequence of human A2A receptor (A2AR) (P29274 whole entry): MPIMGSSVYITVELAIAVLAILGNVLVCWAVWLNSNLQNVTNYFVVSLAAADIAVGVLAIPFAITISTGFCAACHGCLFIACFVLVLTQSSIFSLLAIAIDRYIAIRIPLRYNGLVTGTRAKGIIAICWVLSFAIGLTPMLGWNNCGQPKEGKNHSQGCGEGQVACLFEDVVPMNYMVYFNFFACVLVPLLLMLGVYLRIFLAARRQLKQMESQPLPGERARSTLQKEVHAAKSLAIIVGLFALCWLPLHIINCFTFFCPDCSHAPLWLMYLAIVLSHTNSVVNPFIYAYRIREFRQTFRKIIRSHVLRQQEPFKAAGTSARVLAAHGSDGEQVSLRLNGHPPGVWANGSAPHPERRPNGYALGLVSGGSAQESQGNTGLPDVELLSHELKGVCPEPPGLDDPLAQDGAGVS
row,IC50 [nM],Structure (SMILES)
1,223,"COCCOc1ccc(N2CCN(C(=O)C(C)n3ncc4c3nc(N)n3nc(-c5ccco5)nc43)CC2)cc1 (single isomer, unassigned) [Compound A1a, 2-(5-amino-2-(furan-2-yl)-7H-pyrazolo[4,3-e][1,2,4]triazolo[1,5-c]pyrimidin-7-yl)-1-(4-(4-(2-methoxyethoxy)phenyl)piperazin-1-yl)propan-1-one]"
2,40,"COCCOc1ccc(N2CCN(C(=O)C(C)n3ncc4c3nc(N)n3nc(-c5ccco5)nc43)CC2)cc1 (single isomer, unassigned) [Compound A1b, 2-(5-amino-2-(furan-2-yl)-7H-pyrazolo[4,3-e][1,2,4]triazolo[1,5-c]pyrimidin-7-yl)-1-(4-(4-(2-methoxyethoxy)phenyl)piperazin-1-yl)propan-1-one]"
3,135,"CCCC(C(=O)N1CCN(c2ccc(OCCOCCOC)cc2)CC1)n1ncc2c1nc(N)n1nc(-c3ccco3)nc21 (single isomer, unassigned) [Compound A6b, 2-(5-amino-2-(furan-2-yl)-7H-pyrazolo[4,3-e][1,2,4]triazolo[1,5-c]pyrimidin-7-yl)-1-(4-(4-(2-(2-methoxyethoxy)ethoxy)phenyl)piperazin-1-yl)pentan-1-one]"
4,4.6,"CCCCC(C(=O)N1CCN(c2ccc(OCCOCCOC)cc2)CC1)n1ncc2c1nc(N)n1nc(-c3ccco3)nc21 (single isomer, unassigned) [Compound A11a]"
5,121,"CCCCC(C(=O)N1CCN(c2ccc(OCCOCCOC)cc2)CC1)n1ncc2c1nc(N)n1nc(-c3ccco3)nc21 (single isomer, unassigned) [Compound A11b]"
6,0.9,"COCCOCCOc1ccc(N2CCN(C(=O)C(CC(C)C)n3ncc4c3nc(N)n3nc(-c5ccco5)nc43)CC2)cc1 (single isomer, unassigned) [Compound A17a]"
7,160,"COCCOCCOc1ccc(N2CCN(C(=O)C(CC(C)C)n3ncc4c3nc(N)n3nc(-c5ccco5)nc43)CC2)cc1 (single isomer, unassigned) [Compound A17b]"
8,246,"CC(C)CC(C(=O)N1CCN(c2ccc(F)cc2F)CC1)n1ncc2c1nc(N)n1nc(-c3ccco3)nc21 (single isomer, unassigned) [Compound A22a]"
9,8.1,"COCCOc1ccc(N2CCN(C(=O)C(c3ccccc3OC)n3ncc4c3nc(N)n3nc(-c5ccco5)nc43)CC2)cc1 (single isomer, unassigned) [Compound A31a]"
10,0.1,"COCCOc1ccc(N2CCN(C(=O)C(c3ccccc3OC)n3ncc4c3nc(N)n3nc(-c5ccco5)nc43)CC2)cc1 (single isomer, unassigned) [Compound A31b]"
11,127,"CCCC(C(=O)N1CCN(c2ccc(OCCN(C)C)cc2)CC1)n1ncc2c1nc(N)n1nc(-c3ccco3)nc21 (single isomer, unassigned) [Compound A39a]"
12,16.1,"COCCOc1ccc(N2CCN(C(=O)C(c3ccccc3F)n3ncc4c3nc(N)n3nc(-c5ccco5)nc43)CC2)cc1 (single isomer, unassigned) [Compound A43a]"
13,39.2,"COCCOc1ccc(N2CCN(C(=O)C(c3ccccc3)n3ncc4c3nc(N)n3nc(-c5ccco5)nc43)CC2)c(F)c1 (single isomer, unassigned) [Compound A44a]"
14,0.5,"COCCOc1ccc(N2CCN(C(=O)C(c3ccccc3)n3ncc4c3nc(N)n3nc(-c5ccco5)nc43)CC2)c(F)c1 (single isomer, unassigned) [Compound A44b]"
15,67.4,"COCCOc1ccc(N2CCN(C(=O)C(c3ccccc3)n3ncc4c3nc(N)n3nc(-c5ccco5)nc43)CC2C)cc1 (single isomer, unassigned) [Compound A46a]"
16,0.9,"COCCOc1ccc(N2CCN(C(=O)C(c3ccccc3)n3ncc4c3nc(N)n3nc(-c5ccco5)nc43)CC2C)cc1 (single isomer, unassigned) [Compound A46b]"
17,17.3,"COCCOc1ccc(N2CCN(C(=O)C(c3ccccc3)n3ncc4c3nc(N)n3nc(-c5ccco5)nc43)CC2C)cc1 (single isomer, unassigned) [Compound A47a]"
18,0.2,"COCCOc1ccc(N2CCN(C(=O)C(c3ccccc3)n3ncc4c3nc(N)n3nc(-c5ccco5)nc43)CC2C)cc1 (single isomer, unassigned) [Compound A47b]"
19,88.2,"COCCOc1ccc(N2CCN(C(=O)C(c3ccccc3)n3ncc4c3nc(N)n3nc(-c5ccco5)nc43)C(C)C2)cc1 (single isomer, unassigned) [Compound A50a]"

row,IC50 [nM],Structure (SMILES)
1,1,"COCCOc1ccc(N2CCN(C(=O)C(c3ccccc3)n3ncc4c3nc(N)n3nc(-c5ccco5)nc43)C(C)C2)cc1 (single isomer, unassigned) [Compound A50b]"
2,10.9,"CN(C)CCOc1ccc(N2CCN(C(=O)C(C)(c3ccccc3)n3ncc4c3nc(N)n3nc(-c5ccco5)nc43)CC2)cc1 (single isomer, unassigned) [Compound A71a]"
3,4.8,"CN(C)CCOc1ccc(N2CCN(C(=O)C(C)(c3ccccc3)n3ncc4c3nc(N)n3nc(-c5ccco5)nc43)CC2)cc1 (single isomer, unassigned) [Compound A71b]"
4,21.6,"Nc1nc2c(cnn2C(C(=O)N2CCc3ccccc3C2)c2ccccc2)c2nc(-c3ccco3)nn12 (single isomer, unassigned) [Compound B3a]"
5,29.1,"Nc1nc2c(cnn2C(C(=O)N2CCc3cc(F)ccc3C2)c2ccccc2)c2nc(-c3ccco3)nn12 (single isomer, unassigned) [Compound B7a]"
6,0.5,"Nc1nc2c(cnn2C(C(=O)N2CCc3cc(F)ccc3C2)c2ccccc2)c2nc(-c3ccco3)nn12 (single isomer, unassigned) [Compound B7b]"
7,55,"CCCC(C(=O)N1CCN(c2ccc(OCCOC)cc2)CC1)n1cc2c(nc(N)n3nc(-c4ccco4)nc23)n1 (single isomer, unassigned) [Compound C5a]"
8,209,"CCCC(C(=O)N1CCN(c2ccc(OCCOC)cc2)CC1)n1cc2c(nc(N)n3nc(-c4ccco4)nc23)n1 (single isomer, unassigned) [Compound C5b]"
9,4.1,"COCCOc1ccc(N2CCN(C(=O)C(C3CC3)n3cc4c(nc(N)n5nc(-c6ccco6)nc45)n3)CC2)cc1 (single isomer, unassigned) [Compound C16a]"
10,168,"COCCOc1ccc(N2CCN(C(=O)C(C3CC3)n3cc4c(nc(N)n5nc(-c6ccco6)nc45)n3)CC2)cc1 (single isomer, unassigned) [Compound C16b]"
11,79.8,"COCCOc1ccc(N2CCN(C(=O)C(C)(c3ccccc3)n3cc4c(nc(N)n5nc(-c6ccco6)nc45)n3)CC2)cc1 (single isomer, unassigned) [Compound C25a]"
12,21.2,"COCCOc1ccc(N2CCN(C(=O)C(C)(c3ccccc3)n3cc4c(nc(N)n5nc(-c6ccco6)nc45)n3)CC2)cc1 (single isomer, unassigned) [Compound C25b]"
13,42.9,"COCCOc1ccc(N2CCN(C(=O)C(C)n3ncc4c3nc(N)n3nc(-c5ccco5)nc43)CC2)cc1 (stereo not shown) [Compound A1, 2-(5-amino-2-(furan-2-yl)-7H-pyrazolo[4,3-e][1,2,4]triazolo[1,5-c]pyrimidin-7-yl)-1-(4-(4-(2-methoxyethoxy)phenyl)piperazin-1-yl)propan-1-one]"
14,96.9,"COCCOc1ccc(N2CCN(C(=O)C(C(C)C)n3ncc4c3nc(N)n3nc(-c5ccco5)nc43)CC2)cc1 (stereo not shown) [Compound A2, 2-(5-amino-2-(furan-2-yl)-7H-pyrazolo[4,3-e][1,2,4]Triazolo[1,5-c]pyrimidin-7-yl)-1-(4-(4-(2-methoxyethoxy)phenyl)piperazin-1-yl)-3-methylbutan-1-one]"
15,362,"COCCOc1ccc(N2CCN(C(=O)C(C)(C)n3ncc4c3nc(N)n3nc(-c5ccco5)nc43)CC2)cc1 [Compound A3, 2-(5-amino-2-(furan-2-yl)-7H-pyrazolo[4,3-e][1,2,4]triazolo[1,5-c]pyrimidin-7-yl)-1-(4-(4-(2-methoxyethoxy)phenyl)piperazin-1-yl)-2-methylpropan-1-one]"
16,43.5,"CCC(C(=O)N1CCN(c2ccc(OCCOC)cc2)CC1)n1ncc2c1nc(N)n1nc(-c3ccco3)nc21 (stereo not shown) [Compound A4, 2-(5-amino-2-(furan-2-yl)-7H-pyrazolo[4,3-e][1,2,4]triazolo[1,5-c]pyrimidin-7-yl)-1-(4-(4-(2-methoxyethoxy)phenyl)piperazin-1-yl)butan-1-one]"
17,9.1,"CCCC(C(=O)N1CCN(c2ccc(OCCOC)cc2)CC1)n1ncc2c1nc(N)n1nc(-c3ccco3)nc21 (stereo not shown) [Compound A5, 2-(5-amino-2-(furan-2-yl)-7H-pyrazolo[4,3-e][1,2,4]triazolo[1,5-c]pyrimidin-7-yl)-1-(4-(4-(2-methoxyethoxy)phenyl)piperazin-1-yl)pentan-1-one]"
18,9.5,"CCCC(C(=O)N1CCN(c2ccc(OCCOCCOC)cc2)CC1)n1ncc2c1nc(N)n1nc(-c3ccco3)nc21 (stereo not shown) [Compound A6, 2-(5-amino-2-(furan-2-yl)-7H-pyrazolo[4,3-e][1,2,4]triazolo[1,5-c]pyrimidin-7-yl)-1-(4-(4-(2-(2-methoxyethoxy)ethoxy)phenyl)piperazin-1-yl)pentan-1-one]"
